Laboratory results from ChEMBL document CHEMBL1201862, “PubChem BioAssay data set” (2004).
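Values below derive from 48-hour exposures of cells grown in 96-well plates, with endpoints linearly interpolated between the two concentrations bracketing the appropriate inhibition level. Here, GI50 denotes the concentration required for 50% inhibition of growth.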 The source made the active and inactive calls. Cut-off read from the data, not from the text of the source: active = GI50 up to about 1.1 µM and inactive = higher.

Assays:
Experiment in all cases: inhibition of tumour cell growth, NCI panel, 48 h
ACHN = tested on: ACHN
CCRF-CEM = tested on: CCRF-CEM
EKVX = tested on: EKVX
Hs-578T = tested on: Hs-578T
K562 = tested on: K562
LOX IMVI = tested on: LOX IMVI
MCF7 = tested on: MCF7
MOLT-4 = tested on: MOLT-4
NCI-H23 = tested on: NCI-H23
NCI-H460 = tested on: NCI-H460
NCI-H522 = tested on: NCI-H522
NCI/ADR-RES = tested on: NCI/ADR-RES
OVCAR-3 = tested on: OVCAR-3
SF-268 = tested on: SF-268
SF-539 = tested on: SF-539
SK-MEL-28 = tested on: SK-MEL-28
SK-MEL-5 = tested on: SK-MEL-5
SN12C = tested on: SN12C
HL-60 = tested on: HL-60

Measured: GI50

CC(C)(C)c1ccc(O)c(CN(Cc2cc(C(C)(C)C)ccc2O)C2CCCCC2)c1
inactive: ACHN 20 µM | CCRF-CEM 27.5 µM | EKVX 17.5 µM | Hs-578T 22.6 µM | K562 6.46 µM | LOX IMVI 10.7 µM | MCF7 17.4 µM | MOLT-4 17.7 µM | NCI-H23 20.4 µM | NCI-H460 16.7 µM | NCI-H522 15.8 µM | NCI/ADR-RES 20.3 µM | OVCAR-3 18.2 µM | SF-268 15.7 µM | SF-539 17.3 µM | SK-MEL-28 14.5 µM | SK-MEL-5 15.8 µM | SN12C 16.4 µM

NS(=O)(=O)c1ccc(NCc2cnc3ccccc3c2)cc1
active: HL-60 0.412 µM
inactive: ACHN > 100 µM | EKVX > 100 µM | Hs-578T 51.8 µM | K562 > 100 µM | MCF7 > 100 µM | MOLT-4 > 100 µM | NCI-H23 60 µM | NCI-H460 > 100 µM | NCI-H522 28.1 µM | NCI/ADR-RES 83.8 µM | OVCAR-3 > 100 µM | SF-268 39.8 µM | SF-539 30.5 µM | SK-MEL-28 > 100 µM | SK-MEL-5 > 100 µM | SN12C > 100 µM

O=[N+]([O-])c1ccc(Cl)cc1N/N=C/c1cccc2cccnc12
inactive: ACHN > 100 µM | CCRF-CEM 34.8 µM | EKVX > 100 µM | HL-60 > 100 µM | Hs-578T 30.8 µM | K562 89.9 µM | MCF7 > 100 µM | MOLT-4 39.7 µM | NCI-H23 > 100 µM | NCI-H460 > 100 µM | NCI-H522 > 100 µM | NCI/ADR-RES > 100 µM | OVCAR-3 > 100 µM | SF-268 > 100 µM | SF-539 95.1 µM | SK-MEL-28 > 100 µM | SK-MEL-5 > 100 µM | SN12C > 100 µM

CC1(c2ccc(Cl)cc2)C=C(c2ccc(Cl)cc2)C(C#N)=C(C(C#N)C#N)N1.CNC (stereo unspecified)
inactive: ACHN 16.6 µM | CCRF-CEM 5.02 µM | EKVX 16.6 µM | HL-60 13.1 µM | Hs-578T 9.82 µM | K562 19.2 µM | LOX IMVI 17 µM | MCF7 16.6 µM | MOLT-4 13.6 µM | NCI-H23 15.3 µM | NCI-H460 20.4 µM | NCI/ADR-RES 17.9 µM | OVCAR-3 8.75 µM | SF-268 10.7 µM | SF-539 19.5 µM | SK-MEL-28 24.1 µM | SK-MEL-5 14.2 µM | SN12C 18.3 µM

CCOC(=O)Cc1c(C)c2ccc(OC(C)=O)c(OC(C)=O)c2oc1=O
inactive: ACHN 33.8 µM | CCRF-CEM 4.09 µM | EKVX 23.1 µM | Hs-578T 32.4 µM | K562 28.8 µM | LOX IMVI 25.3 µM | MCF7 24.6 µM | MOLT-4 23.6 µM | NCI-H23 22.4 µM | NCI/ADR-RES 22 µM | OVCAR-3 20.1 µM | SF-268 19.6 µM | SK-MEL-28 21.3 µM | SK-MEL-5 19.5 µM | SN12C 41.8 µM

N#CCCN(CCC#N)c1ccc(/C=C2\N=C(c3ccccc3)N(c3ccc(F)cc3)C2=O)cc1
inactive: ACHN > 100 µM | EKVX > 100 µM | Hs-578T > 100 µM | K562 > 100 µM | LOX IMVI > 100 µM | MCF7 > 100 µM | MOLT-4 > 100 µM | NCI-H460 > 100 µM | NCI/ADR-RES > 100 µM | OVCAR-3 > 100 µM | SF-268 > 100 µM | SF-539 > 100 µM | SK-MEL-28 > 100 µM | SK-MEL-5 > 100 µM | SN12C > 100 µM

COc1cc(CC2CC(c3ccc4c(c3)OCO4)OC2=O)cc(OC)c1OC (stereo unspecified)
inactive: ACHN > 100 µM | CCRF-CEM > 100 µM | EKVX 65.9 µM | HL-60 > 100 µM | Hs-578T > 100 µM | K562 71.8 µM | LOX IMVI > 100 µM | MCF7 > 100 µM | MOLT-4 83 µM | NCI-H23 > 100 µM | NCI-H460 > 100 µM | NCI/ADR-RES 83.2 µM | OVCAR-3 49.5 µM | SF-268 > 100 µM | SF-539 > 100 µM | SK-MEL-28 > 100 µM | SK-MEL-5 43.9 µM | SN12C > 100 µM

C/C(=C\Cc1ccc(F)cc1)CCCCCC/C(C)=C/Cc1ccc(F)cc1
inactive: ACHN 12.2 µM | CCRF-CEM 8.28 µM | EKVX 14.9 µM | Hs-578T 30.8 µM | K562 5.3 µM | LOX IMVI 3.91 µM | MCF7 19.3 µM | MOLT-4 17.7 µM | NCI-H23 10.8 µM | NCI-H460 4.71 µM | NCI-H522 6.59 µM | NCI/ADR-RES 11.9 µM | OVCAR-3 22.9 µM | SF-268 19.5 µM | SF-539 16.7 µM | SK-MEL-5 12.1 µM | SN12C 15.7 µM
